Assay results as given in article PMC12766724, “Synthesis, Anthelmintic Activity, and Mechanism of Action of 5‑Aryl‑1H‑indoles” (Journal of Agricultural and Food Chemistry, 2025).
Where two headings read alike, the source gives them in different places.

Tests used:
[1] = tested on: human keratinocytes (HaCaT); assay: Resazurin assay, 3-day treatment; type: cell-based
Description: (§1) Skin fibroblasts (BJ) were obtained from the American Type Culture Collection (ATCC, Manassas, VA), while human keratinocytes (HaCaT) were sourced from the German Cancer Research Center in Heidelberg, Germany. Cells were cultured in a standard DMEM medium from Sigma-Aldrich, supplemented with 10% fetal bovine serum, 2 mM glutamine, 100 U/mL penicillin, and 100 μg/mL streptomycin. Cultures were maintained under standard conditions (37 °C, 5% CO2, humidified atmosphere) and subcultured two to three times per week. We assessed the effect of 3-day compound treatments on cell viability using a resazurin reduction assay measuring mitochondrial activity. Approximately 5,000 cells in 80 μL of culture medium were seeded into the wells of a 96-well plate. Twenty-four hours later, 20 μL of 5-fold concentrated test compound solutions was added and tested across three concentrations prepared through 2-fold serial dilutions. The highest final concentration was 40 μM. After 72 h, we added an 11-fold concentrated resazurin solution to the wells, achieving a final concentration of 0.0125 μM. Fluorescence (ex = 570 nm, em = 610 nm) was measured after 3 h of incubation.
The disubstituted derivatives i-25 and i-27 were the most toxic in the set, causing around a 50% decrease in viability of HaCaT cells at 40 μM.

Skin fibroblasts (BJ) = assay: Resazurin assay, 3-day treatment; type: cell-based, human; settings: BJ
Description: as §1, with “incubation. […]” for “incubation.”

C. elegans N2 wild-type = assay: Chitinase assay (reproductive capacity); type: in vivo, Caenorhabditis elegans
Description: (§2) The effect of compounds on C. elegans was evaluated using the Chitinase assay as we described previously.
After exposing L1 larvae to the compounds for 4 days, we observed the populations under a microscope and measured the Chitinase activity. The larvae produce the enzyme while hatching, and its activity is indicative of the reproductive capacity of the worms. Populations that fail to reproduce due to acute or reproductive toxicity or developmental abnormalities are detected.

[2] = tested on: Heterodera schachtii second-stage juveniles (J2); assay: Motility on WMicrotracker ONE; type: in vivo
Description: H. schachtii was maintained on mustard (Sinapsis alba cv. Albatros) roots grown in vitro on modified KNOP medium according to the previously published protocols. ,
(§3) The effect of compounds on motility of H. contortus, D. destructor, and H. schachtii was evaluated using the WMicrotracker ONE platform according to previously published protocols. ,
(§4) The instrument evaluates the activity of small animals by counting how many times infrared light microbeams passing through the wells of a microtiter plate are interrupted. In age-unsynchronized populations of D. destructor, we observed reduced motility of worm populations treated with the halogenated derivatives i-19, i-20, and i-21 (Figures A, S2.1A, S2.2A and Table S2.1). […] The decreases in mean activity counts after 72 h of treatment at 100 μM were 85% and 97%, respectively.

[3] = tested on: C. elegans CB3474 ben-1(e1880) III.; assay: Chitinase assay (reproductive capacity); type: in vivo; settings: Caenorhabditis elegans; mebendazole-resistant strain
Description: (§5) C. elegans strains used in this study were N2 (wild-type), levamisole-resistant strains ZZ15 (lev-8(x15) X) and […] (lev-1(e211) IV), ivermectin-resistant strain DA1316 (avr-14(ad1305) I; avr-15(vu227) glc-1(pk54) V), mebendazole-resistant strain […] (ben-1(e1880) III), and three strains with mutations in succinate dehydrogenase, RP2699, RP2700, and RP2702. The worms were cultivated on Nematode Growth Medium agar plates seeded with Escherichia coli OP50 in 20 °C according to the standard cultivation protocols. Strains RP2699, RP2700, and RP2702 were generated by Prof. Peter Roy’s group. All other strains and bacteria were purchased from the Caenorhabditis Genetics Center (CGC, Minneapolis, MN).
as §2
(§6) Lastly, strain DA1316 has mutations in three genes encoding subunits of the glutamate-gated chloride channel and is highly resistant to avermectins.

[4] = tested on: C. elegans ZZ15 lev-8(x15) X.; assay: Chitinase assay (reproductive capacity); type: in vivo; settings: Caenorhabditis elegans; levamisole-resistant strain
Description: as §5, §2, §6

[5] = tested on: C. elegans CB211 lev-1(e211) IV.; assay: Chitinase assay (reproductive capacity); type: in vivo; settings: Caenorhabditis elegans; levamisole-resistant strain
Description: as §5, §2, §6

[6] = tested on: C. elegans DA1316 avr-14(ad1305) I; avr-15(vu227) glc-1(pk54) V.; assay: Chitinase assay (reproductive capacity); type: in vivo; settings: Caenorhabditis elegans; ivermectin-resistant strain
Description: as §5, §2, §6

[7] = tested on: age unsynchronized Ditylenchus destructor; assay: Motility on WMicrotracker ONE; type: in vivo
Description: Populations of D. destructor, kindly provided by Central Institute for Supervising and Testing in Agriculture, the Ministry of Agriculture of the Czech Republic, were maintained according to the protocol previously described here.
as §3, §4

[8] = tested on: Arabidopsis thaliana Col-0; assay: Germination rate and phytotoxicity; type: in vivo; settings: for average fraction of germinated seeds: 5 DPS; for main root length / plant weight: 10 DPS
Description: Wild-type A. thaliana (Col-0 ecotype) seeds were sterilized with 70% EtOH with 0.1% Tween-20 solution (2 × 1 mL) for 10 min, rinsed with 96% EtOH (1 × 1 mL) for 10 min, and kept in the fridge (4 °C in the dark). Seeds were sown on a sterile 1/2 MS medium supplemented with 0.3% DMSO as a mock and test compounds at 5, 10, 50, and 100 μM concentrations in 0.3% DMSO. Plates were kept in long-day light conditions (22 °C/20 °C, 16 h light/8 h dark, 100 μmol m^–2 s^–1). After 5 days, the germination rate was evaluated. After an additional 5 days, primary root growth was measured with ImageJ software (https://imagej.nih.gov/ij/), and seedlings were weighted.

C. elegans N2 = assay: Scoring of developmental rates, L1 exposed 5 days; type: in vivo, Caenorhabditis elegans; set-up: key: 1 = dead/arrested at L1 … 5 = healthy, normal reproduction; settings: 1 µM (control)
Source text: (§7) Dead or mostly immobile worms, arrested at the L1 stage, received a score of 1. Populations with severely delayed development were scored as 2. More developmentally advanced, but still obviously delayed worms were given the score of 3. Adult worms that produce a noticeably lower number of progeny received a score of 4. Healthy worms that reproduce normally (i.e., hundreds of eggs and larvae are present) were scored as 5 (see Figure C for representative images). In a typical, correctly prepared experiment, vehicle-treated populations should receive a score of 5, while worms treated with ivermectin (positive control) should receive a score of 1. […]

[9] = tested on: C. elegans complex II mutant RP2700; assay: Scoring of developmental rates, L1 exposed 5 days; type: in vivo, Caenorhabditis elegans; settings: 1 µM (control)
Source text: as §7

[10] = tested on: C. elegans complex II mutant RP2699; assay: Scoring of developmental rates, L1 exposed 5 days; type: in vivo, Caenorhabditis elegans; settings: 1 µM (control)
Source text: as §7

[11] = tested on: C. elegans complex II mutant RP2702; assay: Scoring of developmental rates, L1 exposed 5 days; type: in vivo, Caenorhabditis elegans; settings: 1 µM (control)
Source text: as §7

[12] = 10 µM group, initial (prior to the treatment)
[13] = 50 µM group, initial (prior to the treatment)
[14] = 100 µM group, initial (prior to the treatment)
[15] = 10 mM group, initial (prior to the treatment)

Oc1cccc(-c2ccc3[nH]ccc3c2)c1 [i-3]
Average viability (signal intensity relative to control) ([1]; 10 µM): 1.02 ± 0.06 | Average viability (signal intensity relative to control) ([1]; 20 µM): 1 ± 0.06 | Average viability (signal intensity relative to control) ([1]; 40 µM): 0.93 ± 0.06 | Average viability (signal intensity relative to control) (Skin fibroblasts (BJ); 10 µM): 1 ± 0.01 | Average viability (signal intensity relative to control) (Skin fibroblasts (BJ); 20 µM): 0.97 ± 0 | Average viability (signal intensity relative to control) (Skin fibroblasts (BJ); 40 µM): 0.89 ± 0

CC(C)Oc1cc(-c2ccc3[nH]ccc3c2)ccc1Cl [i-27]
IC50 (C. elegans N2 wild-type; Caenorhabditis elegans): 9.75 ± 1.65 µM | average activity counts [2, 12]: 169 | average activity counts ([2]; 10 µM, 48 h): 161 | average activity counts ([2]; 10 µM, 72 h): 167 | average activity counts [2, 13]: 189 | average activity counts ([2]; 50 µM, 48 h): 124 | average activity counts ([2]; 50 µM, 72 h): 113 | average activity counts [2, 14]: 169 | average activity counts ([2]; 100 µM, 48 h): 161 | average activity counts ([2]; 100 µM, 72 h): 111 | IC50 [3]: 7.48 ± 0.06 µM | IC50 [4]: 8.83 ± 0.47 µM | IC50 [5]: 9.85 ± 0.33 µM | IC50 [6]: 10.79 ± 0.08 µM | Average viability (signal intensity relative to control) ([1]; 10 µM): 0.78 ± 0.12 | Average viability (signal intensity relative to control) ([1]; 20 µM): 0.6 ± 0.19 | Average viability (signal intensity relative to control) ([1]; 40 µM): 0.48 ± 0.21 | decrease in viability ([1]; 40 µM): ~50% | average activity counts [7, 12]: 242 | average activity counts ([7]; 10 µM, 48 h): 235 | average activity counts ([7]; 10 µM, 72 h): 211 | average activity counts [7, 13]: 248 | average activity counts ([7]; 50 µM, 48 h): 227 | average activity counts ([7]; 50 µM, 72 h): 223 | average activity counts [7, 14]: 213 | average activity counts ([7]; 100 µM, 48 h): 207 | average activity counts ([7]; 100 µM, 72 h): 202 | average fraction of germinated seeds ([8]; 5 µM): 0.94 | main root length ([8]; 5 µM): 39.90 mm | plant weight ([8]; 5 µM): 33.97 mg | average fraction of germinated seeds ([8]; 10 µM): 0.98 | main root length ([8]; 10 µM): 40.35 mm | plant weight ([8]; 10 µM): 35.66 mg | average fraction of germinated seeds ([8]; 50 µM): 0.95 | main root length ([8]; 50 µM): 37.27 mm | plant weight ([8]; 50 µM): 30.34 mg | Average viability (signal intensity relative to control) (Skin fibroblasts (BJ); 10 µM): 0.92 ± 0.02 | Average viability (signal intensity relative to control) (Skin fibroblasts (BJ); 20 µM): 0.92 ± 0.03 | Average viability (signal intensity relative to control) (Skin fibroblasts (BJ); 40 µM): 0.89 ± 0.03

CC(C)Oc1ccc(-c2ccc3[nH]ccc3c2)cc1 [i-16]
IC50 (C. elegans N2 wild-type; Caenorhabditis elegans): 15.2 ± 0.89 µM

CC[C@H](C)[C@H]1O[C@]2(CC[C@@H]1C)C[C@@H]1C[C@@H](C/C=C(\C)[C@@H](O[C@H]3C[C@H](OC)[C@@H](O[C@H]4C[C@H](OC)[C@@H](O)[C@H](C)O4)[C@H](C)O3)[C@@H](C)/C=C/C=C3\CO[C@@H]4[C@H](O)C(C)=C[C@@H](C(=O)O1)[C@]34O)O2 [ivermectin, reference compound]
mean score (1-5) (C. elegans N2): 1 | mean score (1-5) [9]: 1 | mean score (1-5) [10]: 1.333 | mean score (1-5) [11]: 1

Oc1cc(-c2ccc3[nH]ccc3c2)ccc1Cl [i-24]
IC50 (C. elegans N2 wild-type; Caenorhabditis elegans): 25 to 50 µM

[N-]=[N+]=[N-].[Na+] [NaN3, reference compound]
average activity counts [2, 15]: 182 | average activity counts ([2]; 10 mM, 48 h): 2 | average activity counts ([2]; 10 mM, 72 h): 2 | average activity counts [7, 15]: 223 | average activity counts ([7]; 10 mM, 48 h): 7 | average activity counts ([7]; 10 mM, 72 h): 2

CCOc1cccc(-c2ccc3[nH]ccc3c2)c1 [i-9]
IC50 (C. elegans N2 wild-type): 9.76 ± 0.93 µM | IC50 (C. elegans N2 wild-type; Caenorhabditis elegans): < 10 µM | average activity counts [2, 12]: 167 | average activity counts ([2]; 10 µM, 48 h): 161 | average activity counts ([2]; 10 µM, 72 h): 159 | average activity counts [2, 13]: 201 | average activity counts ([2]; 50 µM, 48 h): 207 | average activity counts ([2]; 50 µM, 72 h): 188 | average activity counts [2, 14]: 193 | average activity counts ([2]; 100 µM, 48 h): 202 | average activity counts ([2]; 100 µM, 72 h): 171 | IC50 [3]: 10.2 ± 0.5 µM | IC50 [4]: 9.71 ± 1.34 µM | IC50 [5]: 9.65 ± 1.82 µM | IC50 [6]: 9.34 ± 2.01 µM | Average viability (signal intensity relative to control) ([1]; 10 µM): 0.97 ± 0.04 | Average viability (signal intensity relative to control) ([1]; 20 µM): 1.01 ± 0.05 | Average viability (signal intensity relative to control) ([1]; 40 µM): 0.99 ± 0.02 | average activity counts [7, 12]: 199 | average activity counts ([7]; 10 µM, 48 h): 183 | average activity counts ([7]; 10 µM, 72 h): 205 | average activity counts [7, 13]: 200 | average activity counts ([7]; 50 µM, 48 h): 176 | average activity counts ([7]; 50 µM, 72 h): 212 | average activity counts [7, 14]: 228 | average activity counts ([7]; 100 µM, 48 h): 171 | average activity counts ([7]; 100 µM, 72 h): 181 | average fraction of germinated seeds ([8]; 5 µM): 0.96 | main root length ([8]; 5 µM): 40.21 mm | plant weight ([8]; 5 µM): 33.97 mg | average fraction of germinated seeds ([8]; 10 µM): 0.95 | main root length ([8]; 10 µM): 41.46 mm | plant weight ([8]; 10 µM): 35.69 mg | average fraction of germinated seeds ([8]; 50 µM): 0.96 | main root length ([8]; 50 µM): 35.05 mm | plant weight ([8]; 50 µM): 31.4 mg | Average viability (signal intensity relative to control) (Skin fibroblasts (BJ); 10 µM): 0.92 ± 0.03 | Average viability (signal intensity relative to control) (Skin fibroblasts (BJ); 20 µM): 0.97 ± 0.04 | Average viability (signal intensity relative to control) (Skin fibroblasts (BJ); 40 µM): 0.94 ± 0.03

COc1ccc(-c2ccc3[nH]ccc3c2)cc1 [i-7]
IC50 (C. elegans N2 wild-type; Caenorhabditis elegans): 15.8 ± 1.78 µM
